Experimental data: US20260092071A1, “COMPOUNDS AND COMPOSITIONS AS SMARCA2/4 DEGRADERS AND USES THEREOF” (REGENTS OF THE UNIVERSITY OF MICHIGAN, priority 2022, published 2026)

What was measured:
SMARCA2 [1] = biological target: T1, SMARCA2 (Homo sapiens, UniProt P51531); assay: HiBiT assay for protein degradation, Hela SMARCA2-HiBiT cells (A series); assay type: cell-based; design: Hela cells were genetically modified via CRISPR/Cas9 to fuse HiBiT to the carboxy terminus of SMARCA2; host or cells: HeLa (CRISPR/Cas9 HiBiT knock-in); conditions: Hela SMARCA2-HiBiT cells, 24 hours treatment; for Dmax: read-out: SMARC A2 Hela HiBit Dmax (%); for DC50: read-out: SMARC A2 Hela HiBit DC50;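 as to SMARC A2 Hela HiBit Dmax (%): 24 h compound treatment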
T1 sequence (P51531 whole entry): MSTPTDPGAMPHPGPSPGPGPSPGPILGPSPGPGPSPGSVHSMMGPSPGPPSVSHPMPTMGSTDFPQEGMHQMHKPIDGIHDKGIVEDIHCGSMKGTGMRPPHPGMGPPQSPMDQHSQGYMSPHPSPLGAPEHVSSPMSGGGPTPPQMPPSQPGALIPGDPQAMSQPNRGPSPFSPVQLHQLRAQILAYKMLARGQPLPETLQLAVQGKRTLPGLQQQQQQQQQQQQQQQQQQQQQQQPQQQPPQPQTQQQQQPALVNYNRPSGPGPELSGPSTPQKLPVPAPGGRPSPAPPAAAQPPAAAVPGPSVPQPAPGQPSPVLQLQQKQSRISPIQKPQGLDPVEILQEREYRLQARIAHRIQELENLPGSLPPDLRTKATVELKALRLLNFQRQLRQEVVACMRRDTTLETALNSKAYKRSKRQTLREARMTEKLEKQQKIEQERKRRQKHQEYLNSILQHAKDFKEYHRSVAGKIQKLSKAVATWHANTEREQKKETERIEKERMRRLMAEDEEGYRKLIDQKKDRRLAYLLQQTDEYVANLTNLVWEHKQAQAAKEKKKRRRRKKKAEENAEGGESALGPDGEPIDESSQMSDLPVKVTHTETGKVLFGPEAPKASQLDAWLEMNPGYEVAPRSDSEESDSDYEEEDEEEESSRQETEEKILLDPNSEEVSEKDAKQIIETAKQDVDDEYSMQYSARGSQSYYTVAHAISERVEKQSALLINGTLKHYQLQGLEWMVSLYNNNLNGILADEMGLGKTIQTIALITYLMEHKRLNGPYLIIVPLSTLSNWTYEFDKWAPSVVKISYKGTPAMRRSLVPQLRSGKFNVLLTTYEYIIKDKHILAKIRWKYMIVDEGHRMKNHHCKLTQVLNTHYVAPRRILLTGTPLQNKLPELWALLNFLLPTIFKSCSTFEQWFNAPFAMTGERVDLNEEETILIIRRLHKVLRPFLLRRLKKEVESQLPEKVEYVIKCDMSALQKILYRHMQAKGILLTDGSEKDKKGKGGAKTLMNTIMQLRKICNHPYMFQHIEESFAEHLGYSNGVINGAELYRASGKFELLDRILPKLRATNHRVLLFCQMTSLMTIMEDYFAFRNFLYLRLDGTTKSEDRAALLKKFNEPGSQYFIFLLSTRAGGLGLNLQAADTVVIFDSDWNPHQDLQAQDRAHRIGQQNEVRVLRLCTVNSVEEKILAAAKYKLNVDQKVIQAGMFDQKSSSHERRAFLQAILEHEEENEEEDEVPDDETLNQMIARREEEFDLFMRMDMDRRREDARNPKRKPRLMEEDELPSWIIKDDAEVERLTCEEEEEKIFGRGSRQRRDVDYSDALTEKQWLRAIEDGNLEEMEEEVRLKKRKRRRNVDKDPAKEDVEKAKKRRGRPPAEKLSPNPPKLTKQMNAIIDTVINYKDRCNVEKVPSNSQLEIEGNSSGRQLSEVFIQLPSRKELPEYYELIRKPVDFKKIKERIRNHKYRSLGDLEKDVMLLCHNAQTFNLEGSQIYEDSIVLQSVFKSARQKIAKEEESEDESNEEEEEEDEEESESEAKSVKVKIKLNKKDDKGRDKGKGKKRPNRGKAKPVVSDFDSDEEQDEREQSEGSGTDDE
Procedure: Hela cells were genetically modified via CRISPR/Cas9 to fuse HiBiT to the carboxy terminus of SMARCA2 (Promega CS302365) or SMARCA4 (Promega CS3023225). Cells were cultured in DMEM containing 10% FBS and 1% (Vol:Vol) penicillin-streptomycin. […] At the end of experiment, levels of SMARCA2 or SMARCA4 expression were assessed with Nano-Glo® HiBiT Lytic Detection Assay (Promega N3050). IC50 was obtained using the GraphPad Prism data analysis software.

SMARCA2 [2] = biological target: T1, SMARCA2; assay: HiBit assay in engineered HT1080 CRISPR knock-in cell, 6 hrs (B series), SMARCA2; assay type: cell-based; conditions: 6 hrs incubation
Procedure: The HiBit assay was performed using engineered HT1080 CRISPR knock-in cell utilizing the Nano-Glo HiBiT Lytic Detection System from Promega, Cat #N3040. Compounds were transferred, 25 nL DMSO or test compounds (final DMSO @ 0.1%) to intermediate plates (Corning3570) using ECHO550. Cells were seeded onto compounds at 2000 cells/25 μL/well and incubated for 6 hrs in a tissue culture incubator at 37° C. and 5% CO2. The LgBiT Protein was diluted at 1:100 and the Nano-Glo® HiBIT Lytic Substrate 1:50 into an appropriate volume of room temperature using the Nano-Glo® HiBiT Lytic Buffer. At the end of compound incubation time, 15 ul of the detection reagent was added to each well (without LgBiT for negative control wells) using the Thermo Scientific multidrop combi. The plate was shaken for 10 mins at RT using Combi. After briefly centrifugation (2000 rpm 1 mins), plate was read on Envision (Ultrasensitive luminescence model).

Compound	Dmax (SMARCA2 [1]) [%]	DC50 (SMARCA2 [1]) [nM]	DC50 (SMARCA2 [2]; HT1080 CRISPR knock-in cells, read-out: SMARC A2 HT1080 HiBit DC50) [nM]	Dmax (SMARCA2 [2]; HT-1080, HT1080 CRISPR knock-in cells, read-out: SMARC A2 HT1080 HiBit Dmax (%)) [%]
Cc1ncsc1-c1ccc([C@H](CCN2CC(C)(F)C2)NC(=O)[C@@H]2C[C@@H](O)CN2C(=O)[C@@H](n2cc([C@H]3CC[C@H](CN4CCC(c5ccc6c(c5)-n5c(nc(=O)c7c(Cl)cccc75)C65CCCCC5)CC4)CC3)nn2)C(C)(C)C)cc1 [Compound A79, (2S,4R)-1-((S)-2-(4-((1r,4S)-4-((4-(4′-chloro-5′-oxo-5′H-spiro[cyclohexane-1,7′-indolo[1,2-a]quinazolin]-10′-yl)piperidin-1-yl)methyl)cyclohexyl)-1H-1,2,3-triazol-1-yl)-3,3-dimethylbutanoyl)-N—((S)-3-(3-fluoro-3-methylazetidin-1-yl)-1-(4-(4-methylthiazol-5-yl)phenyl)propyl)-4-hydroxypyrrolidine-2-carboxamide]	70 to 90	< 10		
Cc1ncsc1-c1ccc([C@H](CN2CCOCC2)NC(=O)[C@@H]2C[C@@H](O)CN2C(=O)[C@@H](n2cc(C3CCC(CN4CCC(c5ccc6c(c5)-n5c(nc(=O)c7ccccc75)C65CCCCC5)CC4)CC3)nn2)C(C)(C)C)cc1 (stereo partly drawn) [Compound A170, (2S,4R)-1-((S)-3,3-dimethyl-2-(4-(4-((4-(5′-oxo-5′H-spiro[cyclohexane-1,7′-indolo[1,2-a]quinazolin]-10′-yl)piperidin-1-yl)methyl)cyclohexyl)-1H-1,2,3-triazol-1-yl)butanoyl)-4-hydroxy-N—((R)-1-(4-(4-methylthiazol-5-yl)phenyl)-2-morpholinoethyl)pyrrolidine-2-carboxamide]	< 50	> 1000		
Cc1ncsc1-c1ccc([C@H](CN2CCOCC2)NC(=O)[C@@H]2C[C@@H](O)CN2C(=O)[C@@H](n2cc([C@H]3CC[C@H](CN4CCC(c5ccc6c(c5)-n5c(nc(=O)c7c(Br)cccc75)C65CCCCC5)CC4)CC3)nn2)C(C)(C)C)cc1 [Compound A69, (2S,4R)-1-((S)-2-(4-((1r,4S)-4-((4-(4′-bromo-5′-oxo-5′H-spiro[cyclohexane-1,7′-indolo[1,2-a]quinazolin]-10′-yl)piperidin-1-yl)methyl)cyclohexyl)-1H-1,2,3-triazol-1-yl)-3,3-dimethylbutanoyl)-4-hydroxy-N—((R)-1-(4-(4-methylthiazol-5-yl)phenyl)-2-morpholinoethyl)pyrrolidine-2-carboxamide]	> 90	< 100		
Cc1ncsc1-c1ccc([C@H](CN2CCOCC2)NC(=O)[C@@H]2C[C@@H](O)CN2C(=O)[C@@H](n2cc(C3CCN(CC4CCN(c5ccc6c(c5)-n5c(nc(=O)c7c(Cl)cccc75)C65CCCCC5)CC4)CC3)nn2)C(C)(C)C)cc1 [Compound A168, (2S,4R)-1-((S)-2-(4-(1-((1-(4′-chloro-5′-oxo-5′H-spiro[cyclohexane-1,7′-indolo[1,2-a]quinazolin]-10′-yl)piperidin-4-yl)methyl)piperidin-4-yl)-1H-1,2,3-triazol-1-yl)-3,3-dimethylbutanoyl)-4-hydroxy-N—((R)-1-(4-(4-methylthiazol-5-yl)phenyl)-2-morpholinoethyl)pyrrolidine-2-carboxamide]	< 50	> 1000		
Cc1ncsc1-c1ccc([C@H](CN2CCOCC2)NC(=O)[C@@H]2C[C@@H](O)CN2C(=O)[C@@H](n2cc(C3CCN(CC4CCN(c5ccc6c(c5)-n5c(nc(=O)c7c(Br)cccc75)C65CCCCC5)CC4)CC3)nn2)C(C)(C)C)cc1 [Compound A169, (2S,4R)-1-((S)-2-(4-(1-((1-(4′-bromo-5′-oxo-5′H-spiro[cyclohexane-1,7′-indolo[1,2-a]quinazolin]-10′-yl)piperidin-4-yl)methyl)piperidin-4-yl)-1H-1,2,3-triazol-1-yl)-3,3-dimethylbutanoyl)-4-hydroxy-N—((R)-1-(4-(4-methylthiazol-5-yl)phenyl)-2-morpholinoethyl)pyrrolidine-2-carboxamide]		> 1000		
Cc1ncsc1-c1ccc([C@H](CN2CCOCC2)NC(=O)[C@@H]2C[C@@H](O)CN2C(=O)[C@@H](n2cc([C@H]3CC[C@H](CN4CCC(c5ccc6c(n5)-n5c(nc(=O)c7c(Br)cccc75)C65CCCCC5)CC4)CC3)nn2)C(C)(C)C)cc1 [Compound A52, (2S,4R)-1-((S)-2-(4-((1r,4S)-4-((4-(4′-bromo-5′-oxo-5′H-spiro[cyclohexane-1,7′-pyrido[3′,2′: 4,5]pyrrolo[1,2-a]quinazolin]-10′-yl)piperidin-1-yl)methyl)cyclohexyl)-1H-1,2,3-triazol-1-yl)-3,3-dimethylbutanoyl)-4-hydroxy-N—((R)-1-(4-(4-methylthiazol-5-yl)phenyl)-2-morpholinoethyl)pyrrolidine-2-carboxamide]	70 to 90	< 100		
Cc1ncsc1-c1ccc([C@H](CN2CCOCC2)NC(=O)[C@@H]2C[C@@H](O)CN2C(=O)[C@@H](n2cc([C@H]3CC[C@H](CN4CCC(c5ccc6c(n5)-n5c(nc(=O)c7c(Cl)cccc75)C65CCCCC5)CC4)CC3)nn2)C(C)(C)C)cc1 [Compound A77, (2S,4R)-1-((S)-2-(4-((1r,4S)-4-((4-(4′-chloro-5′-oxo-5′H-spiro[cyclohexane-1,7′-pyrido[3′,2′: 4,5]pyrrolo[1,2-a]quinazolin]-10′-yl)piperidin-1-yl)methyl)cyclohexyl)-1H-1,2,3-triazol-1-yl)-3,3-dimethylbutanoyl)-4-hydroxy-N—((R)-1-(4-(4-methylthiazol-5-yl)phenyl)-2-morpholinoethyl)pyrrolidine-2-carboxamide]	70 to 90	10 to 100		
COCCOCCOCC[C@H](NC(=O)[C@@H]1C[C@@H](O)CN1C(=O)[C@@H](n1cc([C@H]2CC[C@H](CN3CCC(c4ccc5c(c4)-n4c(nc(=O)c6c(Cl)cccc64)C54CCCCC4)CC3)CC2)nn1)C(C)(C)C)c1ccc(-c2scnc2C)cc1 [Compound A82, (2S,4R)-1-((S)-2-(4-((1r,4S)-4-((4-(4′-chloro-5′-oxo-5′H-spiro[cyclohexane-1,7′-indolo[1,2-a]quinazolin]-10′-yl)piperidin-1-yl)methyl)cyclohexyl)-1H-1,2,3-triazol-1-yl)-3,3-dimethylbutanoyl)-4-hydroxy-N—((S)-3-(2-(2-methoxyethoxy)ethoxy)-1-(4-(4-methylthiazol-5-yl)phenyl)propyl)pyrrolidine-2-carboxamide]	> 90	< 10		
Cc1ncsc1-c1ccc([C@H](CN2CCOCC2)NC(=O)[C@@H]2C[C@@H](O)CN2C(=O)[C@@H](n2cc([C@H]3CC[C@H](CN4CCC(c5ccc6c(c5)-n5c(nc(=O)c7c(Br)cccc75)C65CCCCC5)CC4)CC3)nn2)C(C)(C)C)cc1 [Compound B112, (2S,4R)-1-((S)-2-(4-((1r,4S)-4-((4-(4′-bromo-5′-oxo-5′H-spiro[cyclohexane-1,7′-indolo[1,2-a]quinazolin]-10′-yl)piperidin-1-yl)methyl)cyclohexyl)-1H-1,2,3-triazol-1-yl)-3,3-dimethylbutanoyl)-4-hydroxy-N-((R)-1-(4-(4-methylthiazol-5-yl)phenyl)-2-morpholinoethyl)pyrrolidine-2-carboxamide]			< 100	> 90
Cc1ncsc1-c1ccc([C@H](CCN2CC(C)(O)C2)NC(=O)[C@@H]2C[C@@H](O)CN2C(=O)[C@@H](n2cc([C@H]3CC[C@H](CN4CCC(c5ccc6c(c5)-n5c(nc(=O)c7c(Cl)cccc75)C65CCCCC5)CC4)CC3)nn2)C(C)(C)C)cc1 [Compound A80, (2S,4R)-1-((S)-2-(4-((1r,4S)-4-((4-(4′-chloro-5′-oxo-5′H-spiro[cyclohexane-1,7′-indolo[1,2-a]quinazolin]-10′-yl)piperidin-1-yl)methyl)cyclohexyl)-1H-1,2,3-triazol-1-yl)-3,3-dimethylbutanoyl)-4-hydroxy-N—((S)-3-(3-hydroxy-3-methylazetidin-1-yl)-1-(4-(4-methylthiazol-5-yl)phenyl)propyl)pyrrolidine-2-carboxamide]	70 to 90	10 to 100		
Cc1ncsc1-c1ccc([C@H](CCN2CCOCC2)NC(=O)[C@@H]2C[C@@H](O)CN2C(=O)[C@@H](n2cc([C@H]3CC[C@H](CN4CCC(c5ccc6c(c5)-n5c(nc(=O)c7c(Cl)cccc75)C65CCCCC5)CC4)CC3)nn2)C(C)(C)C)cc1 [Compound A81, (2S,4R)-1-((S)-2-(4-((1r,4S)-4-((4-(4′-chloro-5′-oxo-5′H-spiro[cyclohexane-1,7′-indolo[1,2-a]quinazolin]-10′-yl)piperidin-1-yl)methyl)cyclohexyl)-1H-1,2,3-triazol-1-yl)-3,3-dimethylbutanoyl)-4-hydroxy-N—((S)-1-(4-(4-methylthiazol-5-yl)phenyl)-3-morpholinopropyl)pyrrolidine-2-carboxamide]	> 90	< 10		
